Target: T1, Recombinant human LTC4 synthase (Homo sapiens, UniProt Q16873)
T1 construct: made in house; host or cells: Pichia pastoris
T1 sequence (Q16873 1-150): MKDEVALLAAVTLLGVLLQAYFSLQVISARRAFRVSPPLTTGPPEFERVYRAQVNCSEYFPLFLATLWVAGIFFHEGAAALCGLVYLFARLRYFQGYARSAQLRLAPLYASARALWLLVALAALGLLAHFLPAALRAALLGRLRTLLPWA
Experiment: In vitro LTC4 synthase assay (LTA4 to LTC4, HTRF detection)
Type: biochemical
Details: for inhibition at 10 µM: 5 min, total concentration of title compounds in the assay 10 μM
Description: In the assay, LTC4 synthase catalyses the reaction where the substrate LTA4 is converted to LTC4. Recombinant human LTC4 synthase is expressed in Piccia pastoralis and the purified enzyme is dissolved in 25 mM tris-buffer pH 7.8 supplemented with 0.1 mM glutathione (GSH) and stored at −80° C. The assay is performed in phosphate buffered saline (PBS) pH 7.4 and 5 mM GSH in 384-well plates.
The following is added chronologically to each well:
1. 48 μL LTC4 synthase in PBS with 5 mM GSH. The total protein concentration in this solution is 0.5 μg/mL. 2. 1 μL inhibitor in DMSO (final concentration 10 μM). 3. Incubation of the plate at room temperature for 10 min. 4. 1 μL LTA4 (final concentration 2.5 μM). 5. Incubation of the plate at room temperature for 5 min. 6. 10 μL of the incubation mixture is analysed using homogenous time resolved fluorescent (HTRF) detection.

[1] = title compounds of the Examples
[2] = Table 4, title compounds of Example 4

IC50 [1] [nM] | IC50 [2] [nM] | SMILES | also measured
328 | – | COc1ccc(Sc2cc(C(=O)O)cc(C(=O)c3ccc(N(C)c4ccc(Cl)cc4)cc3)c2)cc1OC [2:27, 3-(4-((4-Chlorophenyl)(methyl)amino)benzoyl)-5-(3,4-dimethoxyphenylsulfanyl)benzoic acid] | –
148 | – | CN(c1ccc(Cl)cc1)c1ccc(C(=O)c2cc(Sc3cccc(OC(F)(F)F)c3)cc(C(=O)O)c2)cc1 [2:28, 3-(4-((4-Chlorophenyl)(methyl)amino)benzoyl)-5-(3-(trifluoromethoxy)phenylsulfanyl)benzoic acid] | –
88 | – | CN(c1ccc(Cl)cc1)c1ccc(C(=O)c2cc(Sc3ccc(F)c(F)c3)cc(C(=O)O)c2)cc1 [2:29, 3-(4-((4-Chlorophenyl)(methyl)amino)benzoyl)-5-(3,4-difluorophenylsulfanyl)benzoic acid] | –
175 | – | CN(c1ccc(Cl)cc1)c1ccc(C(=O)c2cc(Sc3ccccc3)cc(C(=O)O)c2)cc1 [2:30, 3-(4-((4-Chlorophenyl)(methyl)amino)benzoyl)-5-(phenysulfanyl)benzoic acid] | –
– | 215 | CCCCCCSc1cc(C(=O)O)cc(C(=O)c2ccc(N(C)c3ccc(Cl)cc3)cn2)c1 [4:3, 3-{5-[(4-Chlorophenyl)(methyl)amino]picolinoyl}-5-(1-hexyl)-sulfanylbenzoic acid] | –
– | 135 | CN(c1ccc(Cl)cc1)c1ccc(C(=O)c2cc(Sc3ccccc3)cc(C(=O)O)c2)nc1 [4:4, 3-{5-[(4-Chlorophenyl)(methyl)amino]picolinoyl}-5-phenylsulfanylbenzoic acid] | –
– | 143 | COc1cccc(Sc2cc(C(=O)O)cc(C(=O)c3ccc(N(C)c4ccc(Cl)cc4)cc3)c2)c1 [4:5, 3-{4-[(4-Chlorophenyl)(methyl)amino]benzoyl}-5-(3-methoxyphenyl-sulfanyl)benzoic acid] | –
– | 165 | CN(c1ccc(Cl)cc1)c1ccc(C(=O)c2cc(Sc3cccc(Cl)c3)cc(C(=O)O)c2)cc1 [4:6, 3-{4-[(4-Chlorophenyl)(methyl)amino]benzoyl}-5-(3-chlorophenyl-sulfanyl)benzoic acid] | –
– | 328 | COc1ccc(Sc2cc(C(=O)O)cc(C(=O)c3ccc(N(C)c4ccc(Cl)cc4)cc3)c2)cc1OC [4:7, 3-{4-[(4-Chlorophenyl)(methyl)amino]benzoyl}-5-(3,4-dimethoxyphenyl-sulfanyl)benzoic acid] | –
– | 148 | CN(c1ccc(Cl)cc1)c1ccc(C(=O)c2cc(Sc3cccc(OC(F)(F)F)c3)cc(C(=O)O)c2)cc1 [4:8, 3-{4-[(4-Chlorophenyl)(methyl)amino]benzoyl}-5-(3-(trifluoromethoxy)-phenylsulfanyl)benzoic acid] | –
– | 88 | CN(c1ccc(Cl)cc1)c1ccc(C(=O)c2cc(Sc3ccc(F)c(F)c3)cc(C(=O)O)c2)cc1 [4:9, 3-{4-[(4-Chlorophenyl)(methyl)amino]benzoyl}-5-(3,4-difluorophenyl-sulfanyl)benzoic acid] | –
– | 175 | CN(c1ccc(Cl)cc1)c1ccc(C(=O)c2cc(Sc3ccccc3)cc(C(=O)O)c2)cc1 [4:10, 3-{4-[(4-Chlorophenyl)(methyl)amino]benzoyl}-5-(phenysulfanyl)benzoic acid] | –
56 | – | CCCCCC[S+]([O-])c1ccc(C(=O)c2ccc(N(C)c3ccc(Cl)cc3)cc2)cc1C(=O)O (centres unmarked) [Example 1:1, 5-{4-[(4-Chlorophenyl)(methyl)amino]benzoyl}-2-(1-hexylsulfinyl)benzoic acid] | inhibition at 10 µM: 100%
66 | – | CN(c1ccc(Cl)cc1)c1ccc(C(=O)c2ccc([S+]([O-])c3ccc(Cl)cc3)c(C(=O)O)c2)cc1 (centres unmarked) [Example 1:2, 5-{4-[(4-Chlorophenyl)(methyl)amino]benzoyl}-2-(4-chlorophenylsulfinyl)benzoic acid] | inhibition at 10 µM: 100%
26 | – | O=C(c1ccc(N(CC2CC2)c2ccc(Cl)cc2)cc1)c1ccc([S+]([O-])c2ccccc2)c(C(=O)O)c1 (centres unmarked) [Example 1:11, 5-{4-[(4-Chlorophenyl)(cyclopropylmethyl)amino]benzoyl}-2-phenylsulfinyl-benzoic acid] | –
29 | – | CCCCCC[S+]([O-])c1ccc(C(=O)c2ccc(N(CC3CC3)c3ccc(Cl)cc3)cc2)cc1C(=O)O (centres unmarked) [Example 1:12, 5-{4-[(4-Chlorophenyl)cyclopropylmethylamino]benzoyl}-2-(1-hexylsulfinyl)-benzoic acid] | –
87 | – | CN(c1ccc(Cl)cc1)c1ccc(C(=O)c2ccc([S+]([O-])c3ccc(F)c(F)c3)c(C(=O)O)c2)nc1 (centres unmarked) [Example 1:13, 5-{5-[(4-Chlorophenyl)methylamino]pyridine-2-carbonyl}-2-(3,4-difluorophenyl-sulfinyl)benzoic acid] | inhibition at 10 µM: 99%
48 | – | O=C(c1ccc([S+]([O-])c2ccc(C(F)(F)F)cc2)c(C(=O)O)c1)c1ccc(N(CC2CC2)c2ccc(Cl)cc2)cn1 (centres unmarked) [Example 1:14, 5-{5-[(4-Chlorophenyl)cyclopropylmethylamino]pyridine-2-carbonyl}-2-(4-tri-fluoromethylphenylsulfinyl)benzoic acid] | –
212 | – | CN(c1ccc(Cl)cc1)c1ccc(C(=O)c2cc(C(=O)O)cc([S+]([O-])c3ccc(F)c(F)c3)c2)cc1 (centres unmarked) [Example 1:19, 3-{4-[(4-Chlorophenyl)(methyl)amino]benzoyl}-5-(3,4-difluorophenylsulfinyl)-benzoic acid] | –
404 | – | CCCCCC[S+]([O-])c1cc(C(=O)O)cc(C(=O)c2ccc(N(C)c3ccc(Cl)cc3)cn2)c1 (centres unmarked) [Example 1:20, 3-{5-[(4-Chlorophenyl)methylamino]pyridine-2-carbonyl}-5-(1-hexylsulfinyl)-benzoic acid] | –
54 | – | CCCCCC[S+]([O-])c1ccc(C(=O)c2ncc(N(C)c3ccc(Cl)cc3)cn2)cc1C(=O)O (centres unmarked) [Example 1:21, 5-(5-((4-Chlorophenyl)(methyl)amino)pyrimidine-2-carbonyl)-2-(1-hexylsulfinyl)-benzoic acid] | inhibition at 10 µM: 99%
41 | – | CCCCCC[S+]([O-])c1ccc(C(=O)c2ccc(N(C)c3ccc(Cl)cc3)cn2)cc1C(=O)O (centres unmarked) [Example 1:22, 5-{5-[(4-Chlorophenyl)methylamino]pyridine-2-carbonyl}-2-(1-hexylsulfinyl)-benzoic acid] | –
172 | – | CCCCCCSc1ccc(C(=O)c2ccc(N(C)c3ccc(Cl)cc3)cc2)cc1C(=O)O [Example 2:1, 5-{4-[(4-Chlorophenyl)(methyl)amino]benzoyl}-2-(1-hexylsulfanyl)benzoic acid] | inhibition at 10 µM: 99%
73 | – | CN(c1ccc(Cl)cc1)c1ccc(C(=O)c2ccc(Sc3cccc(Cl)c3)c(C(=O)O)c2)cc1 [Example 2:2, 5-{4-[(4-Chlorophenyl)(methyl)amino]benzoyl}-2-(3-chlorophenylsulfanyl)-benzoic acid] | inhibition at 10 µM: 98%
119 | – | O=C(c1ccc(Sc2ccc(F)c(F)c2)c(C(=O)O)c1)c1ccc(OCc2cccc(Cl)c2)cn1 [Example 2:21, 5-[5-(3-Chlorobenzyloxy)pyridine-2-carbonyl]-2-(3,4-difluorophenyl-sulfanyl)benzoic acid] | –
252 | – | COc1ccc(Sc2ccc(C(=O)c3ccc(OCc4cccc(Cl)c4)cn3)cc2C(=O)O)cc1 [Example 2:22, 5-[5-(3-Chlorobenzyloxy)pyridine-2-carbonyl]-2-(4-methoxyphenyl-sulfanyl)benzoic acid] | –
398 | – | CCCCCCS(=O)(=O)c1ccc(C(=O)c2ccc(N(C)c3ccc(Cl)cc3)cc2)cc1C(=O)O [Example 3:1, 5-{4-[(4-Chlorophenyl)(methyl)amino]benzoyl}-2-(1-hexylsulfonyl)benzoic acid] | inhibition at 10 µM: 97%
635 | – | CN(c1ccc(Cl)cc1)c1ccc(C(=O)c2ccc(S(=O)(=O)c3ccc(Cl)cc3)c(C(=O)O)c2)cc1 [Example 3:2, 5-{4-[(4-Chlorophenyl)(methyl)amino]benzoyl}-2-(4-chlorophenylsulfonyl)benzoic acid] | inhibition at 10 µM: 98%
– | – | CN(c1ccc(Cl)cc1)c1ccc(C(=O)c2cc(C(=O)O)cc([S+]([O-])c3ccc(F)c(F)c3)c2)cc1 (centres unmarked) [Example 4:1, 3-{4-[(4-Chlorophenyl)(methyl)amino]benzoyl}-5-(3,4-difluorophenylsulfinyl)-benzoic acid] | IC50 (value printed in the text of Example 4:1): 212 nM
– | 404 | CCCCCC[S+]([O-])c1cc(C(=O)O)cc(C(=O)c2ccc(N(C)c3ccc(Cl)cc3)cn2)c1 (centres unmarked) [Example 4:2, 3-{5-[(4-Chlorophenyl)(methyl)amino]picolinoyl}-5-(1-hexylsulfinyl)-benzoic acid] | –

Source: patent US20110319431A1, “Bis Aromatic Compounds for Use as LTC4 Synthase Inhibitors” (BIOLIPOX AB, priority 2009, published 2011)
